Results: the NIST ThermoML archive (doi:10.1016/j.jct.2007.11.011)
Numbers after ± are expanded uncertainties.

Test: xn = mol fraction of the nth substance listed
Conditions: Liquid

CCOS(=O)(=O)[O-].CCn1cc[n+](C)c1 [1-ethyl-3-methylimidazolium ethyl sulfate] + CO
Conditions | mass density [kg/m3]
293.15 K, 25000 kPa, x1 = 0.7289 | 1221.94 ± 2
293.15 K, 25000 kPa, x1 = 0.8521 | 1236.51 ± 2.1
293.15 K, 25000 kPa, x1 = 0.9397 | 1245.42 ± 2.2
293.15 K, 30000 kPa, x1 = 0.04781 | 907.55 ± 1.1
293.15 K, 30000 kPa, x1 = 0.1026 | 979.27 ± 0.54
293.15 K, 30000 kPa, x1 = 0.1977 | 1060.75 ± 0.81
293.15 K, 30000 kPa, x1 = 0.2432 | 1088.79 ± 1
293.15 K, 30000 kPa, x1 = 0.3026 | 1119.01 ± 1.3
293.15 K, 30000 kPa, x1 = 0.3887 | 1151.75 ± 1.6
293.15 K, 30000 kPa, x1 = 0.485 | 1179.09 ± 1.9
293.15 K, 30000 kPa, x1 = 0.589 | 1201.26 ± 2.1
293.15 K, 30000 kPa, x1 = 0.7289 | 1223.92 ± 2.3
293.15 K, 30000 kPa, x1 = 0.8521 | 1238.43 ± 2.4
293.15 K, 30000 kPa, x1 = 0.9397 | 1247.34 ± 2.5
293.15 K, 35000 kPa, x1 = 0.04781 | 910.71 ± 1.1
293.15 K, 35000 kPa, x1 = 0.1026 | 982.13 ± 0.55
293.15 K, 35000 kPa, x1 = 0.1977 | 1063.26 ± 0.89
293.15 K, 35000 kPa, x1 = 0.2432 | 1091.21 ± 1.1
293.15 K, 35000 kPa, x1 = 0.3026 | 1121.32 ± 1.5
293.15 K, 35000 kPa, x1 = 0.3887 | 1153.96 ± 1.8
293.15 K, 35000 kPa, x1 = 0.485 | 1181.21 ± 2.1
293.15 K, 35000 kPa, x1 = 0.589 | 1203.3 ± 2.3
293.15 K, 35000 kPa, x1 = 0.7289 | 1225.88 ± 2.6
293.15 K, 35000 kPa, x1 = 0.8521 | 1240.37 ± 2.7
293.15 K, 35000 kPa, x1 = 0.9397 | 1249.28 ± 2.8
298.15 K, 100 kPa, x1 = 0.04781 | 881.9 ± 0.59
298.15 K, 100 kPa, x1 = 0.1026 | 956.23 ± 0.49
298.15 K, 100 kPa, x1 = 0.1977 | 1040.54 ± 0.5
298.15 K, 100 kPa, x1 = 0.2432 | 1069.25 ± 0.53
298.15 K, 100 kPa, x1 = 0.3026 | 1100.31 ± 0.57
298.15 K, 100 kPa, x1 = 0.3887 | 1134.01 ± 0.63
298.15 K, 100 kPa, x1 = 0.485 | 1162.03 ± 0.67
298.15 K, 100 kPa, x1 = 0.589 | 1184.83 ± 0.71
298.15 K, 100 kPa, x1 = 0.7289 | 1207.95 ± 0.75
298.15 K, 100 kPa, x1 = 0.8521 | 1222.76 ± 0.78
298.15 K, 100 kPa, x1 = 0.9397 | 1231.87 ± 0.8
298.15 K, 2500 kPa, x1 = 0.04781 | 883.82 ± 0.63
298.15 K, 2500 kPa, x1 = 0.1026 | 957.85 ± 0.5
298.15 K, 2500 kPa, x1 = 0.1977 | 1041.91 ± 0.52
298.15 K, 2500 kPa, x1 = 0.2432 | 1070.58 ± 0.56
298.15 K, 2500 kPa, x1 = 0.3026 | 1101.59 ± 0.61
298.15 K, 2500 kPa, x1 = 0.3887 | 1135.21 ± 0.68
298.15 K, 2500 kPa, x1 = 0.485 | 1163.15 ± 0.74
298.15 K, 2500 kPa, x1 = 0.589 | 1185.86 ± 0.79
298.15 K, 2500 kPa, x1 = 0.7289 | 1208.92 ± 0.84
298.15 K, 2500 kPa, x1 = 0.8521 | 1223.17 ± 0.88
298.15 K, 2500 kPa, x1 = 0.9397 | 1232.94 ± 0.9
298.15 K, 5000 kPa, x1 = 0.04781 | 885.81 ± 0.67
298.15 K, 5000 kPa, x1 = 0.1026 | 959.6 ± 0.51
298.15 K, 5000 kPa, x1 = 0.1977 | 1043.39 ± 0.53
298.15 K, 5000 kPa, x1 = 0.2432 | 1071.99 ± 0.58
298.15 K, 5000 kPa, x1 = 0.3026 | 1102.92 ± 0.66
298.15 K, 5000 kPa, x1 = 0.3887 | 1136.46 ± 0.74
298.15 K, 5000 kPa, x1 = 0.485 | 1164.36 ± 0.82
298.15 K, 5000 kPa, x1 = 0.589 | 1187.01 ± 0.88
298.15 K, 5000 kPa, x1 = 0.7289 | 1210.02 ± 0.94
298.15 K, 5000 kPa, x1 = 0.8521 | 1224.62 ± 0.99
298.15 K, 5000 kPa, x1 = 0.9397 | 1234.01 ± 1
298.15 K, 10000 kPa, x1 = 0.04781 | 889.63 ± 0.76
298.15 K, 10000 kPa, x1 = 0.1026 | 962.97 ± 0.53
298.15 K, 10000 kPa, x1 = 0.1977 | 1046.26 ± 0.57
298.15 K, 10000 kPa, x1 = 0.2432 | 1074.73 ± 0.65
298.15 K, 10000 kPa, x1 = 0.3026 | 1105.51 ± 0.75
298.15 K, 10000 kPa, x1 = 0.3887 | 1138.92 ± 0.87
298.15 K, 10000 kPa, x1 = 0.485 | 1166.69 ± 0.98
298.15 K, 10000 kPa, x1 = 0.589 | 1189.25 ± 1.1
298.15 K, 10000 kPa, x1 = 0.7289 | 1212.17 ± 1.2
298.15 K, 10000 kPa, x1 = 0.8521 | 1226.79 ± 1.3
298.15 K, 10000 kPa, x1 = 0.9397 | 1236.07 ± 1.3
298.15 K, 15000 kPa, x1 = 0.04781 | 893.33 ± 0.84
298.15 K, 15000 kPa, x1 = 0.1026 | 966.22 ± 0.54
298.15 K, 15000 kPa, x1 = 0.1977 | 1049.05 ± 0.61
298.15 K, 15000 kPa, x1 = 0.2432 | 1077.43 ± 0.72
298.15 K, 15000 kPa, x1 = 0.3026 | 1108.07 ± 0.86
298.15 K, 15000 kPa, x1 = 0.3887 | 1141.32 ± 1
298.15 K, 15000 kPa, x1 = 0.485 | 1168.99 ± 1.2
298.15 K, 15000 kPa, x1 = 0.589 | 1191.45 ± 1.3
298.15 K, 15000 kPa, x1 = 0.7289 | 1214.29 ± 1.4
298.15 K, 15000 kPa, x1 = 0.8521 | 1228.88 ± 1.5
298.15 K, 15000 kPa, x1 = 0.9397 | 1238.12 ± 1.6
298.15 K, 20000 kPa, x1 = 0.04781 | 896.87 ± 0.92
298.15 K, 20000 kPa, x1 = 0.1026 | 969.37 ± 0.55
298.15 K, 20000 kPa, x1 = 0.1977 | 1051.78 ± 0.66
298.15 K, 20000 kPa, x1 = 0.2432 | 1080.03 ± 0.8
298.15 K, 20000 kPa, x1 = 0.3026 | 1110.55 ± 0.98
298.15 K, 20000 kPa, x1 = 0.3887 | 1143.68 ± 1.2
